Measured values from PubChem BioAssay AID2060483 (Molecular Pharmacology Branch, DTP, NCI, 2025).

System: K24384-001-R-PDC complex spheroids, viability
Test: Anticancer human tumor K24384-001-R-PDC patient-derived pancreatic adenocarcinoma cell line growth inhibition [GQUAD]
Details: for IC50: curve of first compound; for viability, T/C: stronger effect = lower value
Excerpt: DNA G-quadruplex Stabilizer Agents in Combinations in Complex Spheroids
A high-throughput screen of multi-cell type tumor spheroids was designed to identify active combinations of DNA G-quadruplex stabilizer agents and targeted small molecules. Complex spheroids include a stromal component modeled by human endothelial cells (HUVEC) and fibroblasts modeled by human mesenchymal stem cells (MSCs). The concentration ranges selected for each drug and investigational agent were based upon clinically achievable concentrations if the clinical Cmax of the agent was known.
Compounds. The drugs and investigational agents: pidnarulex (CX-5461; NSC782164), APTO-253 (NSC789042), BRACO-19 (NSC847499), peposertib (NSC802822), ceralasertib (NSC780249), elimusertib (NSC800525), camonsertib (NSC841442), AZD-1390 (NSC803789), olaparib (NSC753686), talazoparib (NSC767125), ART-558 (NSC835418), sotorasib (NSC818433), MRTX-1133 (NSC836407), SN-38 (NSC673596), topotecan (NSC609699), etoposide (NSC141540), doxorubicin (NSC123127), gemcitabine (NSC613327), 5-fluorouracil (NSC19893), paclitaxel (NSC125973), vemurafenib (NSC761431), panobinostat (NSC761190), R-306465 (JNJ-16241199; NSC773264), adavosertib (NSC754352), TP-3654 (NSC805149), carboplatin (NSC241240), KSQ-4279 (NSC840948), and staurosporine (NSC755774) were obtained from the National Cancer Institute (NCI) Developmental Therapeutics Program Chemical Repository (34). The FDA-approved anticancer drug set is available from the NCI Developmental Therapeutics Program. […] The stock solutions were prepared in dimethyl sulfoxide (DMSO, Sigma-Aldrich, St. Louis, MO, cat. D2650) at 800-fold the tested concentration and stored at -70 degrees C prior to their use. All drugs and investigational agents were tested over a range starting from a high concentration at or near the clinical Cmax and decreasing in half-log increments. If the clinical Cmax for an agent had not been determined, the highest concentration tested was 10 microM.
2.3 Cell Culture. All cells were maintained in an incubator at 37 degrees C and 5% CO2 with 95% humidity. The PDC lines were cultured according to standard operating procedures established by the NCI PDMR. All PDCs were thawed and cultured in Matrigel-coated flasks prepared with a working solution of 1X Ham's F-12 nutrient mix, without supplementation (Invitrogen, cat. 11765054), 100 U/mL penicillin-streptomycin (Invitrogen, cat. 15140122), and 2.5% Matrigel (Corning Inc., cat. 354248) for the first three passages. The 857933-349-R-J2-PDC line was cultured in 6C/Colon 1B media, which includes advanced DMEM/F-12 (Thermo Fisher Scientific, cat. 12634028), 10 mM HEPES (Thermo Fisher Scientific, cat. 15630080), 1X GlutaMAX supplement (Thermo Fisher Scientific, cat. 35050061), 0.1 mg/mL primocin (InvivoGen, cat. ant-pm-2), 10% defined fetal bovine serum, heat inactivated (HyClone Laboratories Inc., cat. SH30070.03HI), 50% L-WRN conditioned media (ATCC, cat. CRL-3276), 1.25 mM N-Acetyl-L-cysteine (Sigma-Aldrich, cat. A9165), 10 mM nicotinamide (Sigma-Aldrich, cat. N0636), 1X B-27 supplement (Thermo Fisher Scientific, cat. 17504044), 1X N-2 supplement (Thermo Fisher Scientific, cat. 17502048), 10 microM Y-27632 dihydrochloride (Tocris Bioscience, cat. 1254), and 50 ng/mL human EGF recombinant protein (Thermo Fisher Scientific, cat. PHG0311). The 485176-168-R4-J1-PDC line was cultured in Panc media, which includes all 6C/Colon 1B media components plus 100 ng/mL human FGF-10 (Thermo Fisher Scientific, cat. 100-26), 500 nM SB-431542 (Selleckchem, cat. S1067), and gastrin (Tocris, cat. 3006).
[…]

[1] = second compound 0.0316 µM, first compound 0.0316 µM
[2] = second compound 0.0316 µM, first compound 0.1 µM
[3] = second compound 0.0316 µM, first compound 0.316 µM
[4] = second compound 0.0316 µM, first compound 1 µM
[5] = second compound 0.0316 µM, first compound 3.16 µM
[6] = second compound 0.0316 µM, first compound 10 µM
[7] = second compound 0.1 µM, first compound 0.0316 µM
[8] = second compound 0.1 µM, first compound 0.1 µM
[9] = second compound 0.1 µM, first compound 0.316 µM
[10] = second compound 0.1 µM, first compound 1 µM
[11] = second compound 0.1 µM, first compound 3.16 µM
[12] = second compound 0.1 µM, first compound 10 µM
[13] = second compound 0.316 µM, first compound 0.0316 µM
[14] = second compound 0.316 µM, first compound 0.1 µM
[15] = second compound 0.316 µM, first compound 0.316 µM
[16] = second compound 0.316 µM, first compound 1 µM
[17] = second compound 0.316 µM, first compound 3.16 µM
[18] = second compound 0.316 µM, first compound 10 µM
[19] = second compound 1 µM, first compound 0.0316 µM
[20] = second compound 1 µM, first compound 0.1 µM
[21] = second compound 1 µM, first compound 0.316 µM
[22] = second compound 1 µM, first compound 1 µM
[23] = second compound 1 µM, first compound 3.16 µM
[24] = second compound 1 µM, first compound 10 µM
[25] = second compound 3.16 µM, first compound 0.0316 µM
[26] = second compound 3.16 µM, first compound 0.1 µM
[27] = second compound 3.16 µM, first compound 0.316 µM
[28] = second compound 3.16 µM, first compound 1 µM
[29] = second compound 3.16 µM, first compound 3.16 µM
[30] = second compound 3.16 µM, first compound 10 µM
[31] = second compound 10 µM, first compound 0.0316 µM
[32] = second compound 10 µM, first compound 0.1 µM
[33] = second compound 10 µM, first compound 0.316 µM
[34] = second compound 10 µM, first compound 1 µM
[35] = second compound 10 µM, first compound 3.16 µM
[36] = second compound 10 µM, first compound 10 µM
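Also: spheroids exposed to compounds for seven days.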

In the case of `C=CCn1c(=O)c2cnc(Nc3ccc(N4CCN(C)CC4)cc3)nc2n1-c1cccc(C(C)(C)O)n1` + Cc1[nH]c2ccc(F)cc2c1-c1nc2c3cccnc3c3ncccc3c2[nH]1, the IC50 (second compound 0.0316 µM) is reported as 0.436 µM, the IC50 (second compound 0.1 µM) is reported as 0.285 µM and the IC50 (second compound 0.316 µM) is reported as 0.42 µM. The IC50 (second compound 1 µM) was 0.241 µM, the IC50 (second compound 3.16 µM) was 0.192 µM and the IC50 (second compound 10 µM) was 0.159 µM. It also gave a viability, T/C [1] of 94.8%, a viability, T/C [2] of 77.8% and a viability, T/C [3] of 63.1%. It also gave a viability, T/C [4] of 19.3%, a viability, T/C [5] of 14.9% and a viability, T/C [6] of 16.6%. The viability, T/C [7] was 98.7%, the viability, T/C [8] was 95% and the viability, T/C [9] was 45.5%. It also gave a viability, T/C [10] of 19.7%, a viability, T/C [11] of 16.8% and a viability, T/C [12] of 18.8%. The viability, T/C [13] was 89.6%, the viability, T/C [14] was 84.5% and the viability, T/C [15] was 60.6%. For the same molecule, the viability, T/C [16] was 17%, the viability, T/C [17] was 18.8% and the viability, T/C [18] was 15.2%. The viability, T/C [19] was 79.5%, the viability, T/C [20] was 71.9% and the viability, T/C [21] was 43.6%. For the same molecule, the viability, T/C [22] was 17.2%, the viability, T/C [23] was 18.4% and the viability, T/C [24] was 16.6%. It also gave a viability, T/C [25] of 73%, a viability, T/C [26] of 63% and a viability, T/C [27] of 40%. For the same molecule, the viability, T/C [28] was 13.6%, the viability, T/C [29] was 21.1% and the viability, T/C [30] was 19.1%. The viability, T/C [31] was 79%, the viability, T/C [32] was 53.2% and the viability, T/C [33] was 46.2%. It also gave a viability, T/C [34] of 16.3%, a viability, T/C [35] of 14.5% and a viability, T/C [36] of 17.1%.

With `CC1COCCN1c1cc(C2(O)CC3CCC(C2)O3)c2cnn(-c3ccn[nH]3)c2n1` (centres undefined) + Cc1cnc(CNC(=O)c2c(=O)c3ccc(N4CCCN(C)CC4)nc3n3c2sc2ccccc23)cn1 the IC50 (second compound 0.0316 µM) was 0.0333 µM, the IC50 (second compound 0.1 µM) was less than 0.0316 µM and the IC50 (second compound 0.316 µM) was less than 0.0316 µM. It also gave an IC50 (second compound 1 µM) of less than 0.0316 µM, an IC50 (second compound 3.16 µM) of less than 0.0316 µM and an IC50 (second compound 10 µM) of less than 0.0316 µM. It also gave a viability, T/C [1] of 51.9%, a viability, T/C [2] of 39.6% and a viability, T/C [3] of 33.7%. The viability, T/C [4] was 25.1%, the viability, T/C [5] was 26.4% and the viability, T/C [6] was 12.3%. It also gave a viability, T/C [7] of 43.4%, a viability, T/C [8] of 37.5% and a viability, T/C [9] of 31.1%. For the same molecule, the viability, T/C [10] was 32.4%, the viability, T/C [11] was 26.3% and the viability, T/C [12] was 10.8%. For the same molecule, the viability, T/C [13] was 40.6%, the viability, T/C [14] was 37.8% and the viability, T/C [15] was 31%. It also gave a viability, T/C [16] of 31.9%, a viability, T/C [17] of 23.6% and a viability, T/C [18] of 10.8%. It also gave a viability, T/C [19] of 39.2%, a viability, T/C [20] of 42.2% and a viability, T/C [21] of 31.2%. For the same molecule, the viability, T/C [22] was 26.7%, the viability, T/C [23] was 18.1% and the viability, T/C [24] was 8.33%. For the same molecule, the viability, T/C [25] was 42.2%, the viability, T/C [26] was 35.7% and the viability, T/C [27] was 29.5%. It also gave a viability, T/C [28] of 27.2%, a viability, T/C [29] of 16.4% and a viability, T/C [30] of 8.63%. The viability, T/C [31] was 27.5%, the viability, T/C [32] was 20.4% and the viability, T/C [33] was 23.7%. For the same molecule, the viability, T/C [34] was 19.4%, the viability, T/C [35] was 6.65% and the viability, T/C [36] was 0.55%.
